Legend:
[1] = test system: pigweed (Amaranthus retroflexus); test: Test C postemergence; assay type: in vivo; conditions: Amaranthus retroflexus, post-emergence, 336 h, Postemergence, scale 0 to 100, read-out: Plant response rating, Pigweed
Procedure, shortened: (§1)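 Seeds in loam-sand soil were treated preemergence, and plants at the 1- to 4-leaf stage (2-18 cm) in peat-based medium were sprayed postemergence, with test chemicals in a non-phytotoxic solvent containing surfactant. After 13-15 days in a greenhouse, response was rated visually against controls from 0 (no effect) to 100 (complete control).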

[2] = test system: waterhemp (common waterhemp, Amaranthus rudis); test: Test C postemergence; assay type: in vivo; conditions: Amaranthus tuberculatus, post-emergence, Postemergence, scale 0 to 100, read-out: Plant response rating, Waterhemp
Procedure, shortened: as §1

[3] = test system: pigweed (Amaranthus retroflexus); test: Test A preemergence; assay type: in vivo; conditions: Amaranthus retroflexus, pre-emergence, 240 h, 0 to 100 scale (0 no effect, 100 complete control), read-out: Pigweed plant response rating
Procedure, shortened: (§2)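 Greenhouse pot test, loam/sand soil. Formulation: non-phytotoxic solvent mix plus surfactant. Pre: directed spray onto soil after sowing. Post: plants at 1–2 leaf, 2–10 cm. Rated visually vs untreated controls at ~10 d, 0 (no effect) to 100 (complete control).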

[4] = test system: barnyardgrass (Echinochloa crus-galli); test: Test A preemergence; assay type: in vivo; conditions: Echinochloa crus-galli, pre-emergence, 240 h, 0 to 100 scale (0 no effect, 100 complete control), read-out: Barnyardgrass plant response rating
Procedure, shortened: as §2

kochia (Kochia scoparia) [5] = test: Test A preemergence; assay type: in vivo; conditions: Bassia scoparia, pre-emergence, 240 h, 0 to 100 scale (0 no effect, 100 complete control), read-out: Kochia plant response rating
Procedure, shortened: as §2

[6] = test system: giant foxtail (Setaria faberii); test: Test A preemergence; assay type: in vivo; conditions: Setaria faberi, pre-emergence, 240 h, 0 to 100 scale (0 no effect, 100 complete control), read-out: Foxtail, Giant plant response rating
Procedure, shortened: as §2

[7] = test system: ragweed (common ragweed, Ambrosia elatior); test: Test A preemergence; assay type: in vivo; conditions: Ambrosia artemisiifolia, pre-emergence, 240 h, 0 to 100 scale (0 no effect, 100 complete control), read-out: Ragweed plant response rating
Procedure, shortened: as §2

[8] = test system: Italian ryegrass (Lolium multiflorum); test: Test A preemergence; assay type: in vivo; conditions: Lolium multiflorum, pre-emergence, 240 h, 0 to 100 scale (0 no effect, 100 complete control), read-out: Ryegrass, Italian plant response rating
Procedure, shortened: as §2

[9] = test system: pigweed (Amaranthus retroflexus); test: Test A postemergence; assay type: in vivo; conditions: Amaranthus retroflexus, post-emergence, 240 h, 0 to 100 scale, read-out: Plant response rating, Pigweed
Procedure, shortened: as §2

[10] = test system: barnyardgrass (Echinochloa crus-galli); test: Test A postemergence; assay type: in vivo; conditions: Echinochloa crus-galli, post-emergence, 240 h, 0 to 100 scale, read-out: Plant response rating, Barnyardgrass
Procedure, shortened: as §2

[11] = test system: galium (catchweed bedstraw, Galium aparine); test: Test A postemergence; assay type: in vivo; conditions: Galium, post-emergence, 240 h, 0 to 100 scale, read-out: Plant response rating, Galium
Procedure, shortened: as §2

corn (Zea mays) = test: Test A postemergence; assay type: in vivo; conditions: Zea mays, post-emergence, 240 h, 0 to 100 scale
Procedure, shortened: as §2

[12] = test system: wheat (Triticum aestivum); test: Test A postemergence; assay type: in vivo; conditions: Triticum aestivum, post-emergence, 240 h, 0 to 100 scale, read-out: Plant response rating, Wheat
Procedure, shortened: as §2

[13] = test system: blackgrass (Alopecurus myosuroides); test: Test A postemergence; assay type: in vivo; conditions: Alopecurus myosuroides, post-emergence, 240 h, 0 to 100 scale, read-out: Plant response rating, Blackgrass
Procedure, shortened: as §2

kochia (Kochia scoparia) [14] = test: Test A postemergence; assay type: in vivo; conditions: Bassia scoparia, post-emergence, 240 h, 0 to 100 scale, read-out: Plant response rating, Kochia
Procedure, shortened: as §2

[15] = test system: giant foxtail (Setaria faberii); test: Test A postemergence; assay type: in vivo; conditions: Setaria faberi, post-emergence, 240 h, 0 to 100 scale, read-out: Plant response rating, Foxtail, Giant
Procedure, shortened: as §2

[16] = test system: ragweed (common ragweed, Ambrosia elatior); test: Test A postemergence; assay type: in vivo; conditions: Ambrosia artemisiifolia, post-emergence, 240 h, 0 to 100 scale, read-out: Plant response rating, Ragweed
Procedure, shortened: as §2

[17] = test system: Italian ryegrass (Lolium multiflorum); test: Test A postemergence; assay type: in vivo; conditions: Lolium multiflorum, post-emergence, 240 h, 0 to 100 scale, read-out: Plant response rating, Ryegrass, Italian
Procedure, shortened: as §2

[18] = test system: ducksalad (Heteranthera limosa); test: Test B flooded paddy; assay type: in vivo; conditions: Heteranthera limosa, 336 h; 250 g ai/ha, Flood, 13 to 15 days, scale 0 (no effect) to 100 (complete control); read-out: Plant response rating, Ducksalad
Procedure, shortened: (§3)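 Ratings were visual and made relative to untreated controls after 13 to 15 greenhouse days.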

[19] = test system: barnyardgrass (Echinochloa crus-galli); test: Test B flooded paddy; assay type: in vivo; conditions: Echinochloa crus-galli, 336 h; 250 g ai/ha, Flood, 13 to 15 days, scale 0 (no effect) to 100 (complete control); read-out: Plant response rating, Barnyardgrass
Procedure, shortened: as §3

rice (Oryza sativa) = test: Test B flooded paddy; assay type: in vivo; conditions: Oryza sativa, 336 h; 250 g ai/ha, Flood, 13 to 15 days, scale 0 (no effect) to 100 (complete control); read-out: Plant response rating, Rice
Procedure, shortened: as §3

[20] = test system: sedge, umbrella (small-flower umbrella sedge, Cyperus difformis); test: Test B flooded paddy; assay type: in vivo; conditions: Cyperus difformis, 336 h; 250 g ai/ha, Flood, 13 to 15 days, scale 0 (no effect) to 100 (complete control); read-out: Plant response rating, Sedge, Umbrella
Procedure, shortened: as §3

melting point: 109 to 112 °C
Structure (SMILES): N#Cc1cccc(Oc2ncc(C(F)(F)F)cn2)c1Oc1ncc(Cl)cn1 [Compound 39, 2-[(5-chloro-2-pyrimidinyl)oxy]-3-[[5-(trifluoromethyl)-2-pyrimidinyl]oxy]-benzonitrile]
pest or weed control at 31 g/ha ([1]; 31 g ai/ha): 70%
pest or weed control at 62 g/ha ([1]; 62 g ai/ha): 90%
pest or weed control at 125 g/ha ([1]; 125 g ai/ha): 95%
pest or weed control at 31 g/ha ([2]; 31 g ai/ha): 75%
pest or weed control at 62 g/ha ([2]; 62 g ai/ha): 85%
pest or weed control at 125 g/ha ([2]; 125 g ai/ha): 95%
pest or weed control at 31 g/ha ([3]; 31 g ai/ha): 100%
pest or weed control at 125 g/ha ([3]; 125 g ai/ha): 100%
pest or weed control at 31 g/ha ([4]; 31 g ai/ha): 80%
pest or weed control at 125 g/ha ([4]; 125 g ai/ha): 100%
pest or weed control at 31 g/ha (kochia (Kochia scoparia) [5]; 31 g ai/ha): 90%
pest or weed control at 125 g/ha (kochia (Kochia scoparia) [5]; 125 g ai/ha): 100%
pest or weed control at 31 g/ha ([6]; 31 g ai/ha): 100%
pest or weed control at 125 g/ha ([6]; 125 g ai/ha): 100%
pest or weed control at 31 g/ha ([7]; 31 g ai/ha): 0%
pest or weed control at 125 g/ha ([7]; 125 g ai/ha): 40%
pest or weed control at 31 g/ha ([8]; 31 g ai/ha): 10%
pest or weed control at 125 g/ha ([8]; 125 g ai/ha): 90%
pest or weed control at 31 g/ha ([9]; 31 g ai/ha): 100%
pest or weed control at 125 g/ha ([9]; 125 g ai/ha): 100%
pest or weed control at 31 g/ha ([10]; 31 g ai/ha): 90%
pest or weed control at 125 g/ha ([10]; 125 g ai/ha): 90%
pest or weed control at 31 g/ha ([11]; 31 g ai/ha): 100%
pest or weed control at 125 g/ha ([11]; 125 g ai/ha): 100%
Corn plant response rating (crop injury, 0 = no effect, 100 = complete kill) at 31 g/ha (corn (Zea mays); 31 g ai/ha): 60%
Corn plant response rating (crop injury, 0 = no effect, 100 = complete kill) at 125 g/ha (corn (Zea mays); 125 g ai/ha): 100%
plant injury at 31 g/ha ([12]; 31 g ai/ha): 10%
plant injury at 125 g/ha ([12]; 125 g ai/ha): 90%
pest or weed control at 31 g/ha ([13]; 31 g ai/ha): 80%
pest or weed control at 125 g/ha ([13]; 125 g ai/ha): 100%
pest or weed control at 31 g/ha (kochia (Kochia scoparia) [14]; 31 g ai/ha): 100%
pest or weed control at 125 g/ha (kochia (Kochia scoparia) [14]; 125 g ai/ha): 100%
pest or weed control at 31 g/ha ([15]; 31 g ai/ha): 100%
pest or weed control at 125 g/ha ([15]; 125 g ai/ha): 100%
pest or weed control at 31 g/ha ([16]; 31 g ai/ha): 40%
pest or weed control at 125 g/ha ([16]; 125 g ai/ha): 60%
pest or weed control at 31 g/ha ([17]; 31 g ai/ha): 40%
pest or weed control at 125 g/ha ([17]; 125 g ai/ha): 90%
pest or weed control at 250 g/ha [18]: 100%
pest or weed control at 250 g/ha [19]: 50%
plant injury at 250 g/ha (rice (Oryza sativa)): 50%
pest or weed control at 250 g/ha [20]: 100%

Reference: patent US20170190671A1, “BIS(ARYL)CATECHOL DERIVATIVES AS HERBICIDES” (E I DU PONT DE NEMOURS AND COMPANY, priority 2014, published 2017)
